The values below come from US20130150325A1, “3-(Fluorovinyl)pyrazoles and their use” (BAYER INTELLECTUAL PROPERTY GMBH, priority 2011, published 2013).

This experiment relates to HCT 116 cells transfected with a luciferase reporter under the control of an HIF-responsive sequence. As to the kind of experiment: HIF-luciferase assay. Type of experiment: cell-based. The settings on record: Homo sapiens; HCT 116 HIF-luciferase reporter cells, hypoxia chamber (1% O2), 24 h; in some cases means of up to four individual determinations. Put shortly:
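Stably transfected HCT 116 cells, plated overnight under normoxia, were exposed to test substances (0-10 μmol/l) for 24 h at 1% O2. Luminescence was read 5 min after adding luciferase reagent, with normoxic cells as background controls. IC50 derived from the hypoxia-driven signal.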
In general terms: A reporter such as luciferase makes a cellular process visible.

The term IC50 denotes the concentration needed to halve the response being measured.

For the compound `Cc1cc(/C(F)=C/c2ccc(SC(F)(F)F)cc2)nn1Cc1cccc(C(=O)N2CCCC2)c1` [Example 27, [3-({3-[(Z)-1-Fluoro-2-{4-[(trifluoromethyl)sulphanyl]phenyl}vinyl]-5-methyl-1H-pyrazol-1-yl}methyl)phenyl](pyrrolidin-1-yl)methanone], the IC50 came to 4 nM.
`Cc1cc(/C(F)=C/c2ccc(C(C)(C)C)cc2)nn1Cc1cccc(C2(O)CC2)c1` [Example 52, 1-[3-({3-[(Z)-2-(4-tert-Butylphenyl)-1-fluorovinyl]-5-methyl-1H-pyrazol-1-yl}methyl)phenyl]-cyclopropanol] displayed an IC50 of 1 nM.
For `COC(=O)c1cccc(Cn2nc(/C(F)=C/c3ccc(OC(F)(F)F)cc3)cc2C)c1` [Example 18, Methyl 3-[(3-{(Z)-1-fluoro-2-[4-(trifluoromethoxy)phenyl]vinyl}-5-methyl-1H-pyrazol-1-yl)methyl]benzoate], the IC50 stood at 20 nM.
